Common to all, as to format: biochemical
In one assay the target is CDK1/CCNB1 (Homo sapiens, UniProt P06493). Nature of the assay: CDK1 homogeneous time-resolved fluorescence (HTRF) kinase assay. The settings on record: CDK1/CCNB. The gist of the method:
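Compounds, titrated 11 points in half-log steps typically from 10 μM, were incubated with enzyme for 20 min before ATP (1 mM) and ULight-labelled eIF4E-binding protein 1 peptide (50 nM) started a 60-min reaction at 23 °C. Phosphopeptide was detected by europium-antibody TR-FRET and IC50 values were derived.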
On the technique in general: TR-FRET usually uses a lanthanide donor and a delayed reading to cut background.

Another assay has as its target CDK6/CCND1 (Homo sapiens, UniProt Q00534). The experiment in a line: CDK6 homogeneous time-resolved fluorescence (HTRF) kinase assay. The following applies: CDK6/CCND, 1 mM ATP. The gist of the method: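 Recombinant CDK6/CCND1 (1 nM final) was preincubated with compound for 20 min at 23 °C in HEPES buffer with MgCl2, EGTA, DTT and Tween 20. Kinase reaction then ran 60 min at 23 °C with 1 mM ATP and 50 nM ULight-4E-BP1 (Thr37/46) peptide, and was stopped with EDTA.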

For the next assay, the target named is CDK2/CCNE1 (Homo sapiens, UniProt P24941). Nature of the assay: CDK2 homogeneous time-resolved fluorescence (HTRF) kinase assay. The settings on record: CDK2/CCNE. Put shortly: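 IC50 derived from 11-point, half-log dilutions (usually top 10 μM) of compound, 1% DMSO. Kinase (3 nM CDK2/CCNE1) was preincubated with compound 20 min, then phosphorylated 50 nM ULight-4E-BP1 peptide at 1 mM ATP for 60 min, 23 °C. Europium-antibody TR-FRET read after EDTA stop.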

Another assay concerns the target CDK4/CCND3 (Homo sapiens, UniProt P11802). The experiment in a line: CDK4 homogeneous time-resolved fluorescence (HTRF) kinase assay. The following applies: CDK4/CCND. Put shortly:
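HTRF kinase assay, CDK4/CCND3 1.5 nM, ATP 1 mM, ULight-4E-BP1 peptide 50 nM, 23 °C, 60 min reaction after 20 min preincubation. Eu-anti-pThr37/46 antibody detection. 11-pt half-log curves from 10 μM → IC50.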

[1] abbreviates: >250 nM, read-out: CDK1/CCNB IC50 >250 nM.
Setting [2] is: >250 nM, read-out: CDK6/CCND IC50, >250 nM.
[3] abbreviates: >250 nM, read-out: CDK4/CCND IC50, >250 nM.
[4] abbreviates: <25 nM, read-out: CDK2/CCNE IC50, <25 nM.
Setting [5] is: 25-250 nM, read-out: CDK4/CCND IC50, 25-250 nM.
The mark [6] stands for this setting: 25-250 nM, read-out: CDK6/CCND IC50, 25-250 nM.
The mark [7] stands for this setting: 25-250 nM, read-out: CDK2/CCNE IC50, 25-250 nM.

Read-outs that look alike come from different tables or passages of the source.

Sequence of CDK1/CCNB1 (P06493 whole entry): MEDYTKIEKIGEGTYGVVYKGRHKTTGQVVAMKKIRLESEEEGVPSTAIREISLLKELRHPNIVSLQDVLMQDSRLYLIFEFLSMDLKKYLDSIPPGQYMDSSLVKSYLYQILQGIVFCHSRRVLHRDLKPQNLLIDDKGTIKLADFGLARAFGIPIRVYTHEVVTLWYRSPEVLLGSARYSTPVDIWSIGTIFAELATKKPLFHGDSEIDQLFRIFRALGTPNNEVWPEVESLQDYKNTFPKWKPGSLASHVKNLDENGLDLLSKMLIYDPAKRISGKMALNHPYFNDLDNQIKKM
Sequence of CDK1/CCNB1 (P14635 whole entry partner): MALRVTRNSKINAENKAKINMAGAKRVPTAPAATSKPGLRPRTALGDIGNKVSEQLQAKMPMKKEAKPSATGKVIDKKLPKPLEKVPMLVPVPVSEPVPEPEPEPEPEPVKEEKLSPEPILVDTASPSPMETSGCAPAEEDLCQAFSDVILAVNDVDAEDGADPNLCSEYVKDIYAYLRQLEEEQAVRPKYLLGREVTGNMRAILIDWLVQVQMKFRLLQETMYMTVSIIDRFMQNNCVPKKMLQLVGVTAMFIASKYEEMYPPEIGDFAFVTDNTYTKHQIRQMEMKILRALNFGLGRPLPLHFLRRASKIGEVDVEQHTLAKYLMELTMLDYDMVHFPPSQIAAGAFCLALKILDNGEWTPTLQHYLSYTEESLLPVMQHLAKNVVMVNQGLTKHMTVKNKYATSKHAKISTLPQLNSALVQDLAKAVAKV
Sequence of CDK6/CCND1 (Q00534 whole entry): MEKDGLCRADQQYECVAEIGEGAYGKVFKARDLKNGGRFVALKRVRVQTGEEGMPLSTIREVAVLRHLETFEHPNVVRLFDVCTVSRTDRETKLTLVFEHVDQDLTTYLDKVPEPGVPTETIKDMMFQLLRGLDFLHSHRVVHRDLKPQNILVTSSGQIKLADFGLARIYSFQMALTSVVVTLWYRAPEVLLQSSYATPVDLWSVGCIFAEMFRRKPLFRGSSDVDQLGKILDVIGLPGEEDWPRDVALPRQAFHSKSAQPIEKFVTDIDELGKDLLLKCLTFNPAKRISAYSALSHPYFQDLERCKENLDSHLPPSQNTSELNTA
Sequence of CDK6/CCND1 (P24385 whole entry partner): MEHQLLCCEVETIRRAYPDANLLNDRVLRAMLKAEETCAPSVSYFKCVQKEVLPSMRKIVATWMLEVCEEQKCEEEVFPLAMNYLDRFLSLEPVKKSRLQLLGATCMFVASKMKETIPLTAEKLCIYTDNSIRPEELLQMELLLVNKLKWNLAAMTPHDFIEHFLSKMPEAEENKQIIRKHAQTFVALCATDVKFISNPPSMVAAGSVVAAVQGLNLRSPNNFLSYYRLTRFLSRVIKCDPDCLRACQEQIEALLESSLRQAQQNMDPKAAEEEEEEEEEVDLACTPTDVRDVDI
Sequence of CDK4/CCND3 (P11802 whole entry): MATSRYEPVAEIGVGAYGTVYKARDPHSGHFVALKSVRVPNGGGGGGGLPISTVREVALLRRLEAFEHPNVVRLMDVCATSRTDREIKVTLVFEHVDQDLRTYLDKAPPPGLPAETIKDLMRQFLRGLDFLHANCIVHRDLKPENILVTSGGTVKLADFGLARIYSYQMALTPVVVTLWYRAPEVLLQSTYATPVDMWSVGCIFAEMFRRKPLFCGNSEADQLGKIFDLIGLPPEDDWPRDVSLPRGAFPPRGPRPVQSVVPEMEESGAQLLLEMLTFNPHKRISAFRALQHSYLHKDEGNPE
Sequence of CDK4/CCND3 (P30281 whole entry partner): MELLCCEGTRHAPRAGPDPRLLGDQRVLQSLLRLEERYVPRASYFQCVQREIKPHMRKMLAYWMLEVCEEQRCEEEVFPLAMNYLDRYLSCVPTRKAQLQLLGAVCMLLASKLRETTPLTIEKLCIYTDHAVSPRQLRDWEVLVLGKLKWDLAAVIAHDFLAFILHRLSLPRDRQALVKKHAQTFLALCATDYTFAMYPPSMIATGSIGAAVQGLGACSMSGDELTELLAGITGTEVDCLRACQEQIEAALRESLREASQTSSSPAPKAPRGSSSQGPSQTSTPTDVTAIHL

Turning to `Cc1c(-c2nccc3cnc(Nc4ccc(S(=O)(=O)N(c5ncccn5)C5CC5)cc4)cc23)ccc2c1cnn2CC(O)(C(F)(F)F)C(F)(F)F` [Example 698, N-cyclopropyl-4-((5-(4-methyl-1-(3,3,3-trifluoro-2-hydroxy-2-(trifluoromethyl)propyl)-1H-indazol-5-yl)-2,6-naphthyridin-3-yl)amino)-N-(pyrimidin-2-yl)benzenesulfonamide], the IC50 on CDK1/CCNB1 (setting [1]) is above 250 nM; on CDK6/CCND1 (setting [2]) it was above 250 nM; on CDK2/CCNE1 (>250 nM, read-out: CDK2/CCNE IC50, >250 nM), above 250 nM; at CDK4/CCND3 (setting [3]), above 250 nM.

Consider `CS(=O)(=O)c1ccc(Nc2cc3c(C#CC4(O)CCCNC4)nccc3cn2)cc1` (centres unmarked) [Example 699, 3-((7-((4-(methylsulfonyl)phenyl)amino)-2,6-naphthyridin-1-yl)ethynyl)piperidin-3-ol], for which the IC50 at CDK1/CCNB1 (setting [1]) was above 250 nM; at CDK6/CCND1 (setting [2]), above 250 nM; on CDK2/CCNE1 (setting [4]), below 25 nM; at CDK4/CCND3 (setting [5]) it was 25 to 250 nM.

Consider `COc1cnc(NS(=O)(=O)c2ccc(Nc3cc4c(-c5ccc6c(cnn6CC(O)(C(F)(F)F)C(F)(F)F)c5C)nccc4cn3)cc2)cc1N1CCOCC1` [Example 700, N-(5-methoxy-4-morpholinopyridin-2-yl)-4-((5-(4-methyl-1-(3,3,3-trifluoro-2-hydroxy-2-(trifluoromethyl)propyl)-1H-indazol-5-yl)-2,6-naphthyridin-3-yl)amino)benzenesulfonamide], for which the IC50 at CDK1/CCNB1 (setting [1]) was above 250 nM; at CDK6/CCND1 (setting [2]), above 250 nM; at CDK2/CCNE1 (setting [4]) it was below 25 nM; on CDK4/CCND3 (setting [3]), above 250 nM.

As to `Cc1c(-c2nccc3cnc(Nc4ccc(NS(=O)(=O)c5ncccn5)cc4)cc23)ccc2c1cnn2CC(C)(C)O` [Example 705, N-(4-((5-(1-(2-hydroxy-2-methylpropyl)-4-methyl-1H-indazol-5-yl)-2,6-naphthyridin-3-yl)amino)phenyl)pyrimidine-2-sulfonamide], the IC50 at CDK1/CCNB1 (setting [1]) was above 250 nM; on CDK6/CCND1 (setting [6]), 25 to 250 nM; on CDK2/CCNE1 (setting [4]), below 25 nM; on CDK4/CCND3 (setting [5]) it was 25 to 250 nM.

With `Cc1ccc(NS(=O)(=O)c2ccc(Nc3cc4c(-c5ccc6c(cnn6CC(O)(C(F)(F)F)C(F)(F)F)c5C)nccc4cn3)cc2)cc1C(C)(C)O` [Example 708, N-(3-(2-hydroxypropan-2-yl)-4-methylphenyl)-4-((5-(4-methyl-1-(3,3,3-trifluoro-2-hydroxy-2-(trifluoromethyl)propyl)-1H-indazol-5-yl)-2,6-naphthyridin-3-yl)amino)benzenesulfonamide], the IC50 was above 250 nM at CDK1/CCNB1 (setting [1]), above 250 nM on CDK6/CCND1 (setting [2]), 25 to 250 nM on CDK2/CCNE1 (setting [7]) and above 250 nM on CDK4/CCND3 (setting [3]).

Regarding `Cc1c(-c2nccc3cnc(Nc4ccc(S(=O)(=O)Nc5ccccn5)cc4)cc23)ccc2c1cnn2CC(O)(C(F)(F)F)C(F)(F)F` [Example 716, 4-((5-(4-methyl-1-(3,3,3-trifluoro-2-hydroxy-2-(trifluoromethyl)propyl)-1H-indazol-5-yl)-2,6-naphthyridin-3-yl)amino)-N-(pyridin-2-yl)benzenesulfonamide], the IC50 at CDK1/CCNB1 (setting [1]) is above 250 nM; on CDK6/CCND1 (setting [2]) it was above 250 nM; on CDK2/CCNE1 (setting [4]), below 25 nM; at CDK4/CCND3 (setting [3]), above 250 nM.

`CC[C@@H](C)NS(=O)(=O)c1ccc(Nc2cc3c(-c4ccc5c(cnn5CC(C)(C)O)c4C)nccc3cn2)cc1` [Example 721, (R)-N-(sec-butyl)-4-((5-(1-(2-hydroxy-2-methylpropyl)-4-methyl-1H-indazol-5-yl)-2,6-naphthyridin-3-yl)amino)benzenesulfonamide]: the IC50 on CDK1/CCNB1 (setting [1]) is above 250 nM; on CDK6/CCND1 (setting [2]) it was above 250 nM; on CDK2/CCNE1 (setting [4]), below 25 nM; on CDK4/CCND3 (setting [3]) it was above 250 nM.

In the case of `CN1CCN(c2cc(Nc3cc4c(C#Cc5ccc(=O)[nH]n5)nccc4cn3)cnc2O)CC1` [Example 723, 6-((7-((6-hydroxy-5-(4-methylpiperazin-1-yl)pyridin-3-yl)amino)-2,6-naphthyridin-1-yl)ethynyl)pyridazin-3(2H)-one], the IC50 on CDK1/CCNB1 (setting [1]) was above 250 nM; on CDK6/CCND1 (setting [2]), above 250 nM; on CDK2/CCNE1 (setting [7]) it was 25 to 250 nM; at CDK4/CCND3 (setting [3]), above 250 nM.

`Cc1c(-c2nccc3cnc(Nc4ccc([S@@](C)(=N)=O)cc4)cc23)ccc2c1cnn2CC(O)(C(F)(F)F)C(F)(F)F` [Example 724, (S)-1,1,1,3,3,3-hexafluoro-2-((4-methyl-5-(7-((4-(S-methylsulfonimidoyl)phenyl)amino)-2,6-naphthyridin-1-yl)-1H-indazol-1-yl)methyl)propan-2-ol]: the IC50 is above 250 nM on CDK1/CCNB1 (setting [1]), 25 to 250 nM on CDK6/CCND1 (setting [6]), below 25 nM on CDK2/CCNE1 (setting [4]) and 25 to 250 nM on CDK4/CCND3 (setting [5]).

As for `Cc1c(-c2nccc3cnc(Nc4ccc([S@](C)(=N)=O)cc4)cc23)ccc2c1cnn2CC(O)(C(F)(F)F)C(F)(F)F` [Example 725, (R)-1,1,1,3,3,3-hexafluoro-2-((4-methyl-5-(7-((4-(S-methylsulfonimidoyl)phenyl)amino)-2,6-naphthyridin-1-yl)-1H-indazol-1-yl)methyl)propan-2-ol], the IC50 was above 250 nM on CDK1/CCNB1 (setting [1]), 25 to 250 nM on CDK6/CCND1 (setting [6]), below 25 nM at CDK2/CCNE1 (setting [4]) and 25 to 250 nM at CDK4/CCND3 (setting [5]).

Turning to `Cc1c(-c2nccc3cnc(Nc4ccc(S(=O)(=O)N(C)c5ncccn5)cc4)cc23)ccc2c1cnn2CC(O)(C(F)(F)F)C(F)(F)F` [Example 732, N-methyl-4-((5-(4-methyl-1-(3,3,3-trifluoro-2-hydroxy-2-(trifluoromethyl)propyl)-1H-indazol-5-yl)-2,6-naphthyridin-3-yl)amino)-N-(pyrimidin-2-yl)benzenesulfonamide], the IC50 on CDK1/CCNB1 (setting [1]) is above 250 nM; on CDK6/CCND1 (setting [2]), above 250 nM; at CDK2/CCNE1 (setting [7]) it was 25 to 250 nM; at CDK4/CCND3 (setting [3]), above 250 nM.

Turning to `CCN(c1ncccn1)S(=O)(=O)c1ccc(Nc2cc3c(-c4ccc5c(cnn5CC(C)(C)O)c4C)nccc3cn2)cc1` [Example 733, N-ethyl-4-((5-(1-(2-hydroxy-2-methylpropyl)-4-methyl-1H-indazol-5-yl)-2,6-naphthyridin-3-yl)amino)-N-(pyrimidin-2-yl)benzenesulfonamide], the IC50 on CDK1/CCNB1 (setting [1]) was above 250 nM; at CDK6/CCND1 (setting [6]) it was 25 to 250 nM; on CDK2/CCNE1 (setting [4]), below 25 nM; on CDK4/CCND3 (setting [3]) it was above 250 nM.

Turning to `Cc1c(-c2nccc3cnc(Nc4ccc(NS(=O)(=O)c5cccc(N6CCNCC6)c5)cc4)cc23)ccc2c1cnn2CC(C)(C)O` [Example 752, N-(4-((5-(1-(2-hydroxy-2-methylpropyl)-4-methyl-1H-indazol-5-yl)-2,6-naphthyridin-3-yl)amino)phenyl)-3-(piperazin-1-yl)benzenesulfonamide], the IC50 is above 250 nM at CDK1/CCNB1 (setting [1]), above 250 nM on CDK6/CCND1 (setting [2]), below 25 nM at CDK2/CCNE1 (setting [4]) and above 250 nM on CDK4/CCND3 (setting [3]).

As to `Cc1c(-c2nccc3cnc(Nc4ccc(S(=O)(=O)Nc5ccc(N(C)C)nn5)cc4)cc23)ccc2c1cnn2CC(C)(C)O` [Example 765, N-(6-(dimethylamino)pyridazin-3-yl)-4-((5-(1-(2-hydroxy-2-methylpropyl)-4-methyl-1H-indazol-5-yl)-2,6-naphthyridin-3-yl)amino)benzenesulfonamide], the IC50 at CDK1/CCNB1 (25-250 nM, read-out: CDK1/CCNB IC50, 25-250 nM) is 25 to 250 nM; on CDK6/CCND1 (setting [6]), 25 to 250 nM; on CDK2/CCNE1 (setting [4]) it was below 25 nM; on CDK4/CCND3 (setting [5]) it was 25 to 250 nM.

The values above are taken from US20260325533A1, “CDK INHIBITOR COMPOUNDS” (ALEKSIA THERAPEUTICS, INC., priority 2023, published 2026).
